Assay results taken from patent US20060035901A1, “Methotrexate derivatives useful for treating cancer and arthritis” (Serenex, Inc., priority 2004, published 2006).

Experiments:
[1] = biological target: EGFR (Homo sapiens, UniProt P00533); assay: Elution of EGFR from ATP-Sepharose column by compound (Proteome Mining), IC50 estimate; format: binding; details: estimated from percent of protein eluted from ATP-Sepharose column, gel densitometry; read-out: Approximate IC50 for EGFR
Protocol: A proteome containing a known quantity of Her2, EGFR, and B-Raf was run over an ATP-Sepharose™ column in order to bind all purine-binding proteins. See, WO 00/63694 and U.S. Provisional Application No. 60/453,697 filed Jan. 22, 2003, each of which is incorporated by reference in its entirety. The ATP-Sepharose™ was washed several times, and then eluted with the compound of Formula III. The experiment was run in duplicate at concentrations of 20 μM, 100 μM, and 500 μM of the compound of Formula III. The eluted fractions were run on a 1-dimensional SDS polyacrylamide gel. Gels were stained with a fluorescent stain such as sypro ruby (a highly sensitive fluorescent protein stain that can readily detect less than 1 fmol of total protein, i.e., less than 0.04 ng for a 40 kDa protein). The gels were imaged using a standard flat bed gel imager and the amount of protein estimated by densiometry. The percent of protein eluted from the column at each concentration was determined and IC50 values were calculated from these estimates. Where necessary, the eluted proteins were cut out of the gel, and identified using mass spectral techniques.
These steps were repeated with each of the compounds of Formulas IV-X, MTX, and the c series derivative.

[2] = test system: SR (lymphoma, pleural effusion); assay: Cell proliferation assay (WST-1), SR; format: cell-based; details: SR cells
Protocol: (§1) A panel of cancer cell lines was obtained from the DCTP Tumor Repository, National Cancer Institute (Fredrick, Md.) or ATCC (Rockville, Md.). Cell cultures were maintained in Hyclone RPMI 1640 medium (Logan, Utah) supplemented with 10% fetal bovine serum and 20 mM HEPES buffer, pH 7.2, at 37° C., 5% CO2 atmosphere. Cultures were maintained at sub-confluent densities.
(§2) For proliferation assays, cells were seeded with the appropriate medium into 96 well plates at 1,000-2,000 cells per well, depending on cell line, and were incubated overnight. The following day, an amount of test compound, DMSO solution (negative control), or Actinomycin D (positive control) was added to the appropriate wells as 10× concentrated stocks prepared in phosphate buffered saline. The cell plates were then incubated for an additional 2-5 days, dependent on cell line, to allow for proliferation to occur. […] Optical density was determined for each well a 450 nm using a Tecan GniosPro plate reader (RTP, NC). The percentage of cell growth was then determined by comparing the cell growth in the presence of test compounds to the DMSO vehicle control treated cells (100% growth) and […] Actinomycin D treated cells (0% growth).

[3] = test system: SF-268 (central nervous system; anaplastic astrocytoma); assay: Cell proliferation assay (WST-1), SF-268; format: cell-based; details: SF-268 cells
Protocol: as §1, §2

[4] = test system: NCI-H460 (lung; large cell carcinoma); assay: Cell proliferation assay (WST-1, Cyquant DNA), NCI-H460; format: cell-based; details: NCI-H460 cells
Protocol: as §1
as §2, with “saline.” for “saline. The cell plates were then incubated for an additional 2-5 days, dependent on cell line, to allow for proliferation to occur.”
(§3) Immediately after the WST-1 determination, the medium was removed from the NCI-H460 and HUVEC cell lines, and the plates stored at −80° C. Using these assay plates, relative DNA amounts in each well were determined using the Cyquant DNA assay kit from […] (Eugene, Oreg.) following the manufacturer's directions. […]

[5] = test system: OVCAR-3 (ovarian; adenocarcinoma); assay: Cell proliferation assay (WST-1), OVCAR-3; format: cell-based; details: OVCAR-3 cells
Protocol: as §1, §2

[6] = test system: Lncap (prostate; carcinoma); assay: Cell proliferation assay (WST-1), Lncap; format: cell-based; details: Lncap cells
Protocol: as §1, §2

[7] = test system: HT29 (colon; adenocarcinoma, GRIII); assay: Cell proliferation assay (WST-1), HT29; format: cell-based; details: HT29 cells
Protocol: as §1, §2

[8] = test system: SkBr (breast cancer); assay: Cell proliferation assay (WST-1), SkBr; format: cell-based; details: SkBr cells
Protocol: as §1, §2

[9] = test system: NCI/ADR Res (breast; adenocarcinoma); assay: Cell proliferation assay (WST-1), NCI/ADR Res; format: cell-based; details: NCI/ADR Res cells
Protocol: as §1, §2

[10] = test system: SK-Mel 5 (skin; melanoma); assay: Cell proliferation assay (WST-1), SK-Mel 5; format: cell-based; details: SK-Mel 5 cells
Protocol: as §1, §2

[11] = test system: Human umbilical vein endothelial cells (HUVEC); assay: Cell proliferation assay (WST-1, Cyquant DNA), HUVEC; format: cell-based
Protocol: Human umbilical vein endothelial cells (HUVEC) were purchased from Clonetics, a division of Cabrex (Walkersville, Md.). Cultures were established from cryopreserved stocks using Clonetics EGM-2 medium supplemented with 20 mM HEPES, pH 7.2, at 37° C., 5% CO2 atmosphere.
as §2, with “saline.” for “saline. The cell plates were then incubated for an additional 2-5 days, dependent on cell line, to allow for proliferation to occur.”
as §3

[12] = test system: BT474 (breast cancer); assay: Cell proliferation assay (WST-1), BT474; format: cell-based; details: BT474 cells
Protocol: as §1, §2

[13] = test system: T47D (mammary; carcinoma); assay: Cell proliferation assay (WST-1), T47D; format: cell-based; details: T47D cells
Protocol: as §1, §2

[14] = test system: DMS-114 (N/A; small cell); assay: Cell proliferation assay (WST-1), DMS-114; format: cell-based; details: DMS-114 cells
Protocol: as §1, §2

EGFR, sequence (P00533 25-1210, species assumed): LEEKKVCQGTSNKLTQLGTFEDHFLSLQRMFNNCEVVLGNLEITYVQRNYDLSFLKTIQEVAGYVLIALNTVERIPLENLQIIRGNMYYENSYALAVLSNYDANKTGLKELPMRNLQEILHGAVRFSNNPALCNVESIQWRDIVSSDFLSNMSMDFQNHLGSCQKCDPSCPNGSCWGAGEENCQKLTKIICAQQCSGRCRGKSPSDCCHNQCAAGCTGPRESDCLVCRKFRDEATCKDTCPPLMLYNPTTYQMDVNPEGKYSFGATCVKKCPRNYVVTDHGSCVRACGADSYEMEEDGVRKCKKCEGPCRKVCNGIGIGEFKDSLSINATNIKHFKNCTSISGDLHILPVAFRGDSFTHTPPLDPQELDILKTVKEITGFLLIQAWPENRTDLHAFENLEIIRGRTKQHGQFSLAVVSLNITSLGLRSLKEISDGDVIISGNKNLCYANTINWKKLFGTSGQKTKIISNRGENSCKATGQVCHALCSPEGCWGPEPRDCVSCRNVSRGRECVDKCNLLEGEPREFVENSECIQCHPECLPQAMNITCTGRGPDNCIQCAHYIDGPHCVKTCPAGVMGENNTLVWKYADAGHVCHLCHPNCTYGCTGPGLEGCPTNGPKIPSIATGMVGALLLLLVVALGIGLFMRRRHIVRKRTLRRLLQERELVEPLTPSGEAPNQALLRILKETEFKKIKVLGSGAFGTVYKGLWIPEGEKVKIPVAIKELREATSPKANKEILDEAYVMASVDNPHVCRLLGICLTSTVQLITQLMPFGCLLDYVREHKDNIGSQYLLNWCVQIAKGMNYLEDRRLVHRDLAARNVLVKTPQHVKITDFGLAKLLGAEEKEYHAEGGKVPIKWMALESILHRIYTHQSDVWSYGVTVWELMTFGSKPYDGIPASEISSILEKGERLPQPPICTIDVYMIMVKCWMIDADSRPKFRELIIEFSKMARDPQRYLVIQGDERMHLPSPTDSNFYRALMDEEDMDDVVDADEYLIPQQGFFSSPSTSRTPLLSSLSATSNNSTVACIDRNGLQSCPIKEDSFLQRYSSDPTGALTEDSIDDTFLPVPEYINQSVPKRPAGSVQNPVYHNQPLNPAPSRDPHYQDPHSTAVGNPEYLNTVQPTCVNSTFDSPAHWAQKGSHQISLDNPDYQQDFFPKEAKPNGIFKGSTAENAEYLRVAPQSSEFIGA

For `C#CCN(Cc1cnc2nc(N)nc(N)c2n1)c1ccc(C(=O)NC(CCC(=O)O)C(=O)O)cc1C` (centres unmarked) [Formula III, 2-{4-[(2,4-diamino-pteridin-6-ylmethyl)-prop-2-ynyl-amino]-3-methyl-benzoylamino}-pentanedioic acid], the IC50 [1] was 5 µM, the “Fold Improvement in Cell Proliferation IC50 Compared to MTX” value (from here on “Fold Improvement”) [2] was greater than 4 fold and the “Fold Improvement” value [3] was greater than 4 fold. The “Fold Improvement” value [4] was greater than 1 fold, the “Fold Improvement” value [5] was greater than 3 fold and the “Fold Improvement” value [6] was 7 fold. For the same molecule, the “Fold Improvement” value [7] was greater than 6 fold, the “Fold Improvement” value [8] was greater than 2 fold and the “Fold Improvement” value [9] was greater than 1 fold. The “Fold Improvement” value [10] was greater than 4 fold, the “Fold Improvement” value [11] was greater than 2 fold and the “Fold Improvement” value [12] was greater than 5 fold. For the same molecule, the “Fold Improvement” value [13] was 3 fold and the “Fold Improvement” value [14] was greater than 4 fold.
